What was measured:
RCC IV = RCC IV activity in submitochondrial particles; format: biochemical, rat; design: key to RCC IV at 50XCmax / RCC IV at 100XCmax: activity relative to DMSO-treated controls (control set as 1 = 100%); details: for RCC IV at 50XCmax: in %; for RCC activity IV: 15 min, DMSO-treated = 100
Summary of the method: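 Rat submitochondrial particles (1 mg/ml) were treated with test compounds for 15 min. RCC IV, like RCC III, was monitored at 550 nm every 10 s for 2 min, and RCC I/V at 340 nm each minute for 6 min. DMSO samples defined unit activity.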

[1] = test system: isolated rat liver mitochondria; assay: Mitochondrial inner membrane potential (MMP), Rhodamine 123; format: biochemical; details: difference in signal between KI and DMSO treated samples at the end of experiments
Source text: Fig. 3 KI effects on mitochondrial inner membrane potential (MMP). […] In a, c, data are means and standard derivations from three separate experiments. *p < 0.05 as compared to DMSO-treated samples at the end of experiments. In b, data are means of two independent experiments

[2] = design: method as in product labeling; details: ref product labeling, cited from earlier work; for Labeling for cardiotoxicity: BBW: black box warning, W&P: Warnings and Precautions
[3] = relative to DMSO treated samples

Row | Compound | RCC IV at 50XCmax (RCC IV; [3]) | MMP measured by Rhodamine 123 at 1XCmax [1] | MMP measured by Rhodamine 123 at 2.5XCmax [1] | MMP measured by Rhodamine 123 at 5XCmax [1] | MMP measured by Rhodamine 123 at 10XCmax [1] | MMP measured by Rhodamine 123 at 20XCmax [1] | MMP measured by Rhodamine 123 at 30XCmax [1] | MMP measured by Rhodamine 123 at 50XCmax [1] | MMP measured by Rhodamine 123 at 100XCmax [1] | Labeling for cardiotoxicity [2] | Potential for cardiotoxicity (based on labeling) [2] | RCC IV at 50XCmax (RCC IV; DMSO treated samples set as 1) | RCC activity IV (RCC IV; 100-fold Cmax) | RCC activity IV (RCC IV; 50-fold Cmax)
1 | CNC(=O)c1ccccc1Sc1ccc2c(/C=C/c3ccccn3)n[nH]c2c1 [Axitinib] | 0 | 0 | 0 | 0 | 0 | 0 | 0 | 0 | 0 | W&P: Cardiac Failure | 1 |  |  | 
2 | Cc1nc(Nc2ncc(C(=O)Nc3c(C)cccc3Cl)s2)cc(N2CCN(CCO)CC2)n1 [dasatinib (free base)] | 0 | 0 | 0 | 0 | 0 | 0 | 0 | 0 | 0 | W&P: Cardiovascular events;QT Interval Prolongation | 1 |  |  | 
3 | CCN(CC)CCNC(=O)c1c(C)[nH]c(/C=C2\C(=O)Nc3ccc(F)cc32)c1C [sunitinib malate] | 0 | 0 | 0 | 0 | 0 | 0 | 0 | 0 | 0 | W&P: Cardiovascular events;QT Interval Prolongation and Torsade de Pointes | 1 |  |  | 
4 | COc1cc2nccc(Oc3ccc(NC(=O)NC4CC4)c(Cl)c3)c2cc1C(N)=O [Lenvatinib] |  | 0 | 0 | 0 | 0 | 0 | 0 | 0 | 0 |  |  | 0 |  | 
5 | COc1cc(Nc2c(C#N)cnc3cc(OCCCN4CCN(C)CC4)c(OC)cc23)c(Cl)cc1Cl [Bosutinib] | 0 | 0 | 0 | 0 | 0 | 0 | 0 | 0 | 0 |  | 0 |  | 101.25 ± 2.26 % of control | 
6 | N#CC[C@H](C1CCCC1)n1cc(-c2ncnc3[nH]ccc23)cn1 [ruxolitinib phosphate] | 0 | 0 | 0 | 0 | 0 | 0 | 0 | 0 | 0 |  | 0 |  |  | 
7 | COc1cc2c(Nc3ccc(Br)cc3F)ncnc2cc1OCC1CCN(C)CC1 [Vandetanib] | 0 | 0 | 0 | 0 | 0 | 0 | 0 | 0 | 0 | BBW | 1 |  | 103.06 ± 12.96 % of control | 100.56 ± 2.67 % of control

— paper PMC5515969, “Effects of 31 FDA approved small-molecule kinase inhibitors on isolated rat liver mitochondria” (Archives of Toxicology, 2016)
